Data set [1] concerns Rattus norvegicus. As to the kind of experiment: Induction of hypnotic activity in iv dosed Sprague-Dawley rat assessed as time duration of loss of righting reflex. Further: test concentration or dose not given here. It is filed as functional.
Data set [2] can be described thus: Toxicity in Sprague-Dawley rat assessed as motor coordination by rotarod test. It is filed as organism-based. The settings on record: in vivo.
The subject of data set [3] is Rattus norvegicus. As to the kind of experiment: Induction of hypnotic activity in iv dosed Sprague-Dawley rat assessed as loss of righting reflex. It is filed as functional.
Data set [4] concerns the target Glutamate NMDA receptor (Rattus norvegicus) (UniProt P35439+Q00959+Q00960+Q00961+Q62645+Q8VHN2+Q9R1M7). As to the kind of experiment: Displacement of [3H]MK801 from NMDA receptor in Sprague-Dawley rat cerebral cortex membrane at 50 umol by liquid scintillation counting. Type of data set: tissue-based.
A short description of data set [5]: Therapeutic index, ratio of […] for Sprague-Dawley rat by rotarod test to HD50 for hypnotic activity in iv dosed Sprague-Dawley rat. It is filed as organism-based. The settings on record: in vivo, read-out: TI.
Data set [6] deals with Rattus norvegicus. In words: Induction of hypnotic activity in iv dosed Sprague-Dawley rat assessed as reflex depression 10 secs following injection. Type of data set: functional, organism-based.
The test system of data set [7] is Rattus norvegicus. In words: Induction of hypnotic activity in iv dosed Sprague-Dawley rat assessed as reflex depression 20 secs following injection. Type of data set: functional, organism-based.

Active and inactive are the calls of the source. The calls are words filed in the database; no cut-off is given here.

As for `CCOc1cc(CC(=O)OC(C)CC)c(F)cc1OCC(=O)N(CC)CC` (stereo unspecified), in the data set with Rattus norvegicus [1], the Time is recorded as 145.3 s. In addition, the TD50 in data set [2] is 90.7 mg/kg. In addition, the HD50 in the data set on Rattus norvegicus [3] worked out at 8.4 mg/kg. Also, the outcome in data set [4] was inactive. The selectivity ratio in data set [5] is 10.8.
Turning to `CCOC(=O)Cc1cc(F)c(OCC(=O)N(CC)CC)c(OCC)c1`, the Time in the data set with Rattus norvegicus [1] amounted to 66.5 s. Also, the TD50 in data set [2] turned out to be 224 mg/kg. Besides, the HD50 in the data set on Rattus norvegicus [3] turned out to be 18.5 mg/kg. Also, the outcome in data set [4] was inactive. In addition, in data set [5], the selectivity ratio is 12.1.
Consider `CCCOC(=O)Cc1cc(F)c(OCC(=O)N(CC)CC)c(OCC)c1`, for which, in the data set on Rattus norvegicus [1], the Time turned out to be 76.6 s. The TD50 in data set [2] was 175 mg/kg. For the same compound, the HD50 with Rattus norvegicus [3] was 14.8 mg/kg. Further, the result in data set [4] was inactive. Also, the selectivity ratio in data set [5] was 11.8.
The corresponding values for `CCN(CC)C(=O)COc1ccc(CC(=O)OCC(F)(F)F)c(F)c1OC` are 88.7 s, 185 mg/kg, 22.8 mg/kg, “inactive” and 8.1.
Take `CCN(CC)C(=O)COc1cc(F)c(CC(=O)OCC(F)(F)F)cc1OC`: in the data set with Rattus norvegicus [1], the Time amounted to 75.4 s. The TD50 in data set [2] was determined as 171 mg/kg. Moreover, the HD50 in the data set on Rattus norvegicus [3] is 18.4 mg/kg. The result in data set [4] was inactive. Moreover, the selectivity ratio in data set [5] is 9.3.
The corresponding values for `CCCOC(=O)Cc1ccc(OCC(=O)N(CC)CC)c(OC)c1F` are 76.6 s, 169 mg/kg, 19.4 mg/kg, “inactive” and 8.7.
Turning to `CCCCOC(=O)Cc1cc(OCC)c(OCC(=O)N(CC)CC)cc1F`, in the data set with Rattus norvegicus [1], the Time is recorded as 158.3 s. In data set [2], the TD50 came out at 109 mg/kg. The HD50 in the data set on Rattus norvegicus [3] was 9.7 mg/kg. Besides, the outcome in data set [4] was inactive. In addition, the selectivity ratio in data set [5] was found to be 11.2.
For `CCN(CC)C(=O)COc1ccc(CC(=O)OC(C)C)c(F)c1OC` the same measures were 91.4 s, 141 mg/kg, 17.9 mg/kg, “inactive” and 7.9.
`CCN(CC)C(=O)COc1ccc(CC(=O)OC(C)C(F)(F)F)c(F)c1OC` (stereo unspecified): the Time in the data set with Rattus norvegicus [1] amounted to 92.6 s. The TD50 in data set [2] amounted to 158 mg/kg. Moreover, the HD50 in the data set on Rattus norvegicus [3] came to 21.4 mg/kg. For the same compound, the result in data set [4] was inactive. Moreover, in data set [5], the selectivity ratio was determined as 7.4.
As for `CCOc1c(OCC(=O)N(CC)CC)ccc(CC(=O)OC(C)C(F)(F)F)c1F` (stereo unspecified), the Time in the data set with Rattus norvegicus [1] amounted to 89.8 s. In addition, the TD50 in data set [2] was found to be 182 mg/kg. Besides, in the data set with Rattus norvegicus [3], the HD50 turned out to be 24.6 mg/kg. Besides, in data set [4], the result was inactive. In addition, the selectivity ratio in data set [5] was found to be 7.4.
The corresponding values for `CCOc1c(OCC(=O)N(CC)CC)ccc(CC(=O)OCC(F)(F)F)c1F` are 83.3 s, 162 mg/kg, 21.1 mg/kg, “inactive” and 7.7.
For `CCOc1cc(CC(=O)OC(C)C)c(F)cc1OCC(=O)N(CC)CC` the same measures were 226.2 s, 60.9 mg/kg, 4.8 mg/kg, “inactive” and 12.7.
Turning to `CCCOC(=O)Cc1ccc(OCC(=O)N(CC)CC)c(OCC)c1` [AZD-3043], the Time with Rattus norvegicus [1] was found to be 74.2 s. Besides, the TD50 in data set [2] was 82.8 mg/kg. Moreover, the HD50 in the data set on Rattus norvegicus [3] was found to be 7.9 mg/kg. Further, the result in data set [4] was inactive. The outcome with Rattus norvegicus [6] and in the data set on Rattus norvegicus [7] was Active. In data set [5], the selectivity ratio worked out at 10.1.
Take `CCN(CC)C(=O)COc1c(F)cc(CC(=O)OCC(F)(F)F)cc1OC`: the Time in the data set with Rattus norvegicus [1] is 71.1 s. In data set [2], the TD50 was 165 mg/kg. Further, the HD50 in the data set with Rattus norvegicus [3] stood at 16.9 mg/kg. Besides, the result in data set [4] was inactive. Moreover, the selectivity ratio in data set [5] was 9.8.
Regarding `CCN(CC)C(=O)COc1cc(F)c(CC(=O)OC(C)C(F)(F)F)cc1OC` (stereo unspecified), the Time in the data set with Rattus norvegicus [1] was 88.9 s. In data set [2], the TD50 amounted to 151 mg/kg. Besides, the HD50 in the data set on Rattus norvegicus [3] turned out to be 15.6 mg/kg. Also, the outcome in data set [4] was inactive. The selectivity ratio in data set [5] is 9.7.
Turning to `CCOC(=O)Cc1cc(F)c(OCC(=O)N(CC)CC)c(OC)c1`, in the data set with Rattus norvegicus [1], the Time is reported as 72 s. The TD50 in data set [2] was determined as 239 mg/kg. The HD50 in the data set with Rattus norvegicus [3] was found to be 17.2 mg/kg. For the same compound, the outcome in data set [4] was inactive. In addition, in data set [5], the selectivity ratio amounted to 13.9.
For `CCOc1cc(CC(=O)OC(C)C(F)(F)F)cc(F)c1OCC(=O)N(CC)CC` (stereo unspecified) the same measures were 88.8 s, 181 mg/kg, 18.3 mg/kg, “inactive” and 9.9.
For `CCOc1cc(CC(=O)OC(C)C(F)(F)F)c(F)cc1OCC(=O)N(CC)CC` (stereo unspecified) the same measures were 238.3 s, 124 mg/kg, 11.6 mg/kg, “inactive” and 10.7.
The corresponding values for `CCOC(=O)Cc1cc(OC)c(OCC(=O)N(CC)CC)cc1F` are 82.2 s, 113 mg/kg, 10 mg/kg, “inactive” and 11.3.
Regarding `CCOc1c(OCC(=O)N(CC)CC)ccc(CC(=O)OC(C)C)c1F`, the Time in the data set with Rattus norvegicus [1] is recorded as 102.9 s. For the same compound, in data set [2], the TD50 stood at 165 mg/kg. The HD50 in the data set with Rattus norvegicus [3] stood at 17.9 mg/kg. Also, the outcome in data set [4] was inactive. Besides, in data set [5], the selectivity ratio was determined as 9.2.
The corresponding values for `CCOc1cc(CC(=O)OCC(F)(F)F)c(F)cc1OCC(=O)N(CC)CC` are 186.1 s, 113 mg/kg, 9.8 mg/kg, “inactive” and 11.5.
For `CCOC(=O)Cc1ccc(OCC(=O)N(CC)CC)c(OC)c1F` the same measures were 89.8 s, 201 mg/kg, 21.6 mg/kg, “inactive” and 9.3.
For `CCOC(=O)Cc1ccc(OCC(=O)N(CC)CC)c(OCC)c1F` the same measures were 77.7 s, 200 mg/kg, 19.8 mg/kg, “inactive” and 10.1.
In the case of `CCCOC(=O)Cc1cc(OC)c(OCC(=O)N(CC)CC)cc1F`, the Time in the data set on Rattus norvegicus [1] is given as 79.3 s. In addition, in data set [2], the TD50 turned out to be 199 mg/kg. Besides, in the data set with Rattus norvegicus [3], the HD50 worked out at 15.8 mg/kg. Besides, the outcome in data set [4] was inactive. The selectivity ratio in data set [5] is 12.6.
For `CCN(CC)C(=O)COc1cc(F)c(CC(=O)OC(C)C)cc1OC` the same measures were 86.6 s, 155 mg/kg, 11.5 mg/kg, “inactive” and 13.5.
For `CCN(CC)C(=O)COc1c(F)cc(CC(=O)OC(C)C(F)(F)F)cc1OC` (stereo unspecified) the same measures were 84.2 s, 148 mg/kg, 15.4 mg/kg, “inactive” and 9.6.
The corresponding values for `CCOc1cc(CC(=O)OCC(F)(F)F)cc(F)c1OCC(=O)N(CC)CC` are 76.6 s, 127 mg/kg, 14.6 mg/kg, “inactive” and 8.7.
`CCCOC(=O)Cc1cc(OCC)c(OCC(=O)N(CC)CC)cc1F`: the Time in the data set with Rattus norvegicus [1] is 215.3 s. The TD50 in data set [2] was determined as 70.5 mg/kg. Also, in the data set on Rattus norvegicus [3], the HD50 is 5.3 mg/kg. Besides, in data set [4], the result was inactive. Moreover, the selectivity ratio in data set [5] came to 13.3.
In the case of `CCCOC(=O)Cc1cc(F)c(OCC(=O)N(CC)CC)c(OC)c1`, the Time in the data set with Rattus norvegicus [1] came out at 68.9 s. In data set [2], the TD50 came out at 188 mg/kg. Further, the HD50 in the data set with Rattus norvegicus [3] worked out at 16.8 mg/kg. Moreover, in data set [4], the result was inactive. Also, the selectivity ratio in data set [5] amounted to 11.2.
As to `CCCOc1cc(CC(=O)OC(C)C)c(F)cc1OCC(=O)N(CC)CC`, the Time in the data set on Rattus norvegicus [1] is 133.9 s. Also, the TD50 in data set [2] worked out at 102 mg/kg. The HD50 in the data set on Rattus norvegicus [3] came to 10.6 mg/kg. Moreover, the result in data set [4] was inactive. Also, in data set [5], the selectivity ratio was 9.6.
`CCN(CC)C(=O)COc1c(F)cc(CC(=O)OC(C)C)cc1OC`: in the data set with Rattus norvegicus [1], the Time was 79.5 s. The TD50 in data set [2] worked out at 176 mg/kg. In addition, the HD50 with Rattus norvegicus [3] is 14.2 mg/kg. For the same compound, the outcome in data set [4] was inactive. In addition, the selectivity ratio in data set [5] came to 12.4.
For the compound `CCCOC(=O)Cc1ccc(OCC(=O)N(CC)CC)c(OCC)c1F`, the Time with Rattus norvegicus [1] was 81.4 s. In addition, the TD50 in data set [2] came to 173 mg/kg. The HD50 with Rattus norvegicus [3] is 16.6 mg/kg. In data set [4], the outcome was inactive. In addition, the selectivity ratio in data set [5] was 10.4.
Regarding `CCOc1cc(CC(=O)OC(C)C)cc(F)c1OCC(=O)N(CC)CC`, in the data set on Rattus norvegicus [1], the Time was 92.7 s. In addition, in data set [2], the TD50 came out at 256 mg/kg. In addition, the HD50 in the data set with Rattus norvegicus [3] was 19.5 mg/kg. For the same compound, the result in data set [4] was inactive. Also, the selectivity ratio in data set [5] is 13.1.
Turning to `CC(C)c1cccc(C(C)C)c1O` [PROPOFOL], in the data set with Rattus norvegicus [1], the Time came out at 349.3 s. Also, in data set [2], the TD50 is 30.7 mg/kg. Also, in the data set on Rattus norvegicus [3], the HD50 stood at 5.3 mg/kg. In addition, the selectivity ratio in data set [5] stood at 5.9.

These data come from ChEMBL document CHEMBL3351378, “Phenyl acetate derivatives, fluorine-substituted on the phenyl group, as rapid recovery hypnotic agents with reflex depression” (Eur J Med Chem, 2015).
